In patent US11446226B2, “Composition for preventing or improving intrinsic aging comprising paeoniflorin or albiflorin” (Amorepacific Corporation, priority 2017, dated 2022):

Tests used:
MMP-1 [1] = experiment: MMP-1 inhibition effect in fibroblasts, stimulation source TNF-α (MMP-1 ELISA normalized to CCK8 cell viability); type: cell-based; conditions: TNF-α 10 ng/mL; for MMP-1 level with respect to the negative control group treated with TNF-α as 100: 0.1 or 1 ppm; for Normalized MMP-1 level relative to TNF-α control (100%): 48 hours
Protocol: Fibroblasts acquired from ATCC were transferred to a medium containing 10% (v/v) FBS and were cultured at 37° C. for 24 hours under the condition of 5% CO2. After replacing the medium with a serum-free medium, the cells were cultured for at least 6 hours. Then, after treating with 10 ng/mL TNF-α, as an intrinsic inflammatory factor causing intrinsic aging, and then with 0.1 ppm or 1 ppm paeoniflorin (Sigma-Aldrich), the cells were cultured for 48 hours. 48 hours later, the culture was separated partly and MMP-1 ELISA was conducted according to a method commonly employed in the art. A negative control group was not treated with paeoniflorin, and a positive control group was treated with 2 μM ATRA (all-trans retinoic acid) instead of the paeoniflorin. Subsequently, the remaining culture was separated partly and cell viability was measured by CCK8 (cell count kit 8) assay according to a method commonly employed in the art. The result was normalized to the result of the MMP-1 ELISA. Meanwhile, the MMP-1 inhibition effect by albiflorin was investigated in the same manner as the MMP-1 inhibition effect by paeoniflorin, except that the cells were treated with 0.1 ppm or 1 ppm albiflorin (Wako Chemical) instead of the 0.1 ppm or 1 ppm paeoniflorin. The MMP-1 inhibition effect by a combination of paeoniflorin and albiflorin was investigated in the same manner as the MMP-1 inhibition effect by paeoniflorin, except that the cells were treated with a 10:1 mixture of paeoniflorin and albiflorin (P+A) at 0.1+0.01 ppm or 1+0.1 ppm instead of the 0.1 ppm or 1 ppm paeoniflorin.

MMP-1 [2] = experiment: MMP-1 inhibition effect in fibroblasts, stimulation source UV (UVB; MMP-1 ELISA normalized to CCK8 cell viability); type: cell-based; conditions: 48 hours
Protocol: Fibroblasts acquired from ATCC were transferred to a medium containing 10% (v/v) FBS and were cultured at 37° C. for 24 hours under the condition of 5% CO2. After replacing the medium with a serum-free medium, the cells were cultured for at least 6 hours. Then, after treating with 30 mJ/cm^2 UVB, as an extrinsic stimulating factor causing extrinsic aging, and then with 0.1 ppm or 1 ppm paeoniflorin (Sigma-Aldrich), the cells were cultured for 48 hours. 48 hours later, the culture was separated partly and MMP-1 ELISA was conducted according to a method commonly employed in the art. A negative control group was not treated with paeoniflorin, and a positive control group was treated with 2 μM ATRA (all-trans retinoic acid) instead of the paeoniflorin.
Subsequently, the remaining culture was separated partly and cell viability was measured by CCK8 (cell count kit 8) assay according to a method commonly employed in the art. The result was normalized to the result of the MMP-1 ELISA.
Meanwhile, the MMP-1 inhibition effect by albiflorin was investigated in the same manner as the MMP-1 inhibition effect by paeoniflorin, except that the cells were treated with 0.1 ppm or 1 ppm albiflorin (Wako Chemical) instead of the 0.1 ppm or 1 ppm paeoniflorin.

[3] = 0.1 ppm, with respect to negative control
[4] = 1 ppm, with respect to negative control
[5] = UVB 30 mJ/cm^2, 0.1 ppm, with respect to negative control
[6] = UVB 30 mJ/cm^2, 1 ppm, with respect to negative control

Structure (SMILES)	MMP-1 level with respect to the negative control group treated with TNF-α as 100 (MMP-1 [1])	Normalized MMP-1 level relative to TNF-α control (100%) (MMP-1 [1]; [3]) [%]	Normalized MMP-1 level relative to TNF-α control (100%) (MMP-1 [1]; [4]) [%]	Normalized MMP-1 Inhibition (%) (MMP-1 [2]; [5])	Normalized MMP-1 Inhibition (%) (MMP-1 [2]; [6])	Normalized MMP-1 level relative to TNF-α control (100%) (MMP-1 [1]; positive control 2 μM ATRA) [%]	Normalized MMP-1 Inhibition (%) (MMP-1 [2]; UVB 30 mJ/cm^2, positive control 2 μM ATRA)
C[C@]12C[C@@H](O)[C@@H]3C[C@@]1(O[C@@H]1O[C@H](CO)[C@@H](O)[C@H](O)[C@H]1O)[C@]3(COC(=O)c1ccccc1)C(=O)O2 [Albiflorin, albiflorin]	about 60%	63.25	59.44	−5.29	−10.96	–	–
C[C@@]12C[C@@]3(O)O[C@@H](O1)[C@]1(COC(=O)c4ccccc4)[C@H]3C[C@@]12O[C@@H]1O[C@H](CO)[C@@H](O)[C@H](O)[C@H]1O [Paeoniflorin, paeoniflorin]	about 60%	69.34	66.49	−3.27	−22.03	–	–
CC1=C(/C=C/C(C)=C/C=C/C(C)=C/C(=O)O)C(C)(C)CCC1 [Positive control, all-trans retinoic acid, reference compound]	–	–	–	–	–	48.75	25.72
